According to patent US10561639B2, “Composition comprising a TNFR agonist and at least one thioredoxin inhibitor for use in the treatment of carcinoma” (UNIVERSITY OF HUDDERSFIELD, priority 2013, dated 2020):

Experiments:
[1] = test system: colorectal carcinoma SW480 cells; experiment: Cytotox-Glo % cell death in colorectal carcinoma SW480 cells; assay type: cell-based; conditions: 12 hours, BS-1 5 microg/mL, PX-12 4 microM, FIG. 8
Procedure: Apoptosis was assessed 12 hours later using the Cytotox-Glo assay (Promega). Results were obtained as relative luciferase activity in comparison to negative controls and subsequently percentage (%) cell death values were deduced for each condition according to the manufacturer's instructions. Results are representative of two independent experiments in which six technical replicates were carried out for each condition.

[2] = test system: Bladder carcinoma cells (EJ); experiment: Cytotox-Glo apoptosis assay in bladder carcinoma cells (EJ); assay type: cell-based; conditions: 48 hours, G28-5 10 ug/mL, PX-12 at minimally cytotoxic concentration, FIG. 1
Procedure: Referring firstly to FIG. 1 where comparative results are shown from Bladder carcinoma cells (EJ) treated with soluble CD40 agonist (agonistic antibody G28-5), the indicated concentration of Trx inhibitor (PX-12), or their combination and results compared to untreated (Control) cells. Apoptosis was assessed 48 hours later using the Cytotox-Glo assay (Promega). Raw data (relative luminescence units) are shown and results are representative of three independent experiments in which six technical replicates were carried out for each condition.
Apoptosis was assessed 48 hours later using the Cytotox-Glo assay (Promega). Results are expressed as relative luciferase in comparison to negative controls and are representative of four independent experiments in which six technical replicates were carried out for each condition.
Carcinoma cell lines EJ and HCT116 (obtained from the European Collection of Cell Cultures, ECACC) were maintained in a 50:50 (v/v) mixture of Dulbecco's Modified Eagle Medium (DMEM, Sigma) and Roswell Park Memorial Institute 1640 (RPMI, Sigma) (DR), supplemented with 5% Fetal calf serum (FCS, Biosera) and 1% (2 mM) L-Glutamine (Sigma). Cells were incubated at 37° C. in a humidified atmosphere of 5% CO2 in air. […] Cells were removed with a 10 mL suspension of DR 5% and counted in single cell suspension using an “improved Neubauer” haemocytometer (VWR). […]

[3] = PX-12 alone; cited from earlier work
[4] = test system: colorectal carcinoma cells (HCT116); experiment: Sensolyte caspase activity assay in colorectal carcinoma cells (HCT116); assay type: cell-based; conditions: 24 hours, PX-12 3 μM, G28-5 10 ug/mL, FIG. 3
Procedure: Apoptosis was assessed on the basis of caspase activity detection after 24 hours of treatment using the Sensolyte (Anaspec) assay (Cambridge Biosciences). Results are expressed as relative fluorescence (relative caspase activity) in comparison to negative controls and are representative of two independent experiments in which six technical replicates were carried out for each condition.
Carcinoma cell lines EJ and HCT116 (obtained from the European Collection of Cell Cultures, ECACC) were maintained in a 50:50 (v/v) mixture of Dulbecco's Modified Eagle Medium (DMEM, Sigma) and Roswell Park Memorial Institute 1640 (RPMI, Sigma) (DR), supplemented with 5% Fetal calf serum (FCS, Biosera) and 1% (2 mM) L-Glutamine (Sigma). […] Cells were removed with a 10 mL suspension of DR 5% and counted in single cell suspension using an “improved Neubauer” haemocytometer (VWR).
EJ and HT116 cells were seeded into white 96-well plates (at […] and 6×10^3 cells per well, respectively) and left incubated overnight. […] Cells were then incubated for 48 hours before assessing cell death using the CytoTox-Glo™ cell death detection assay (according to the manufacturer's instructions) on a FLUOstar™ OPTIMA (BMG Labtech) plate reader. Alternatively, after 24 or 48 hours caspase activity was determined using the SensoLyte® Homogenous AFC Caspase-3/7 Assay Kit (Anaspec). […]

[5] = test system: ASK-1 protein knock-out EJ cell derivatives ('S18'); experiment: Cytotox-Glo apoptosis assay in ASK-1 knock-out EJ derivatives treated with mCD40L; assay type: cell-based; conditions: S18 cells versus EJ cells, 48 hours, FIG. 5
Procedure: (§1) The cells were treated with mCD40L and apoptosis was assessed 48 hours later using the Cytotox-Glo assay (Promega) and by measuring levels of phospho-JNK and Bax using immune-blotting. The images from the blotting can be seen in FIGS. 6a and 6b.

[6] = test system: phospho-JNK and Bax in ASK-1 knock-out EJ cell derivatives ('S18'); experiment: Immunoblotting of phospho-JNK and Bax after mCD40L; assay type: cell-based; conditions: cells with ASK-1 knockdown (S18), FIGS. 6a and 6b
Procedure: as §1

Molecule | pro-apoptotic activity / cytotoxicity (% Cell Death) [1] | cytotoxicity / apoptosis (Cytotox-Glo, relative luminescence units) [2] | doses required for conventional PX-12 treatment to obtain cytotoxicity [3] [µg/mL] | cytotoxicity / apoptosis by caspase activation (relative caspase activity) [4] | apoptosis after mCD40L in ASK-1 knockdown cells (Cytotox Glo) [5] | p-JNK and Bax induction [6]
CCC(C)SSc1ncc[nH]1 (stereo not drawn) [PX-12, 2-[(1-Methylpropyl)dithio]-1H-imidazole] | some but not extensive cytotoxicity | little | 10 to 25 | some cytotoxicity |  | 
mCD40L: membrane CD40 ligand delivered by co-culture with growth-arrested third-party cells expressing mCD40L (protein, UniProt P29965 1-261, looked up, full-length expressed on growth-arrested feeder cells) MIETYNQTSPRSAATGLPISMKIFMYLLTVFLITQMIGSALFAVYLHRRLDKIEDERNLHEDFVFMKTIQRCNTGERSLSLLNCEEIKSQFEGFVKDIMLNKEETKKENSFEMQKGDQNPQIAAHVISEASSKTTSVLQWAEKGYYTMSNNLVTLENGKQLTVKRQGLYYIYAQVTFCSNREASSQAPFIASLCLKSPGRFERILLRAANTHSSAKPCGQQSIHLGGVFELQPGASVFVNVTDPSQVSHGTGFTSFGLLKL |  |  |  |  | inhibition of apoptosis | lack of p-JNK and Bax induction
